Source: patent US7662842B2, “Thiazolidinone amides, thiazolidine carboxylic acid amides, and serine amides, including polyamine conjugates thereof, as selective anti-cancer agents” (Ohio State Univesity Research Foundation, priority 2003, dated 2010)
pIC50: −log10 of the molar value.

Legend:
[1] = system: effector capsase-3; assay: Activation of effector caspase-3; assay type: cell-based
[2] = system: SKMEL-188 and WM-164 cell lines; assay: SRB assay, statements on both melanoma cell lines; assay type: cell-based
Method: Louis, Mo.). WM-164 cells (gift of Dr. Meenhard Herlyn, Wistar Inst., Philadelphia, Pa.) and human dermal fibroblasts (Cascade Biologics, Inc., Portland, Oreg.) were cultured in DMEM medium (Cellgro Mediatech, Inc.) supplemented with 5% fetal bovine serum, 1% antibiotic.antimycotic mixture and bovine insulin ([…], Sigma-Aldrich, Inc.). Human dermal fibroblasts were used as a control to examine the effects of compounds on stromal environment. Thus, the effect of the various compounds on melanoma cells versus fibroblasts would document their potential selectivity. Sulforhodamine B Assay: Cells were seeded into 96-well plates at 5000 cells/well. After 12 hours, media were changed and serial dilutions of compounds were added. Cells were incubated with each compound for 48 hours. Fresh media containing the test compound were changed ever 24 hours. Thereafter, total cell protein corresponding to cell numbers (both viable and non-viable cells) were measured using the sulforhodamine B (SRB) assay according to manufacturer's protocol (Sigma-Aldrich, Inc.) (Rubinstein et al., “Comparison of in vitro Anticancer Drug-screening Data Generated with a Tetrazolium Assay Versus a Protein Assay Against a Diverse Panel of Human Tumor Cell Lines,” J. Natl. Cancer Inst. 82:1113-1118 (1990); Dothager et al., “Synthesis and Identification of Small Molecules that Potently Induce Apoptosis in Melanoma Cells Through GI Cell Cycle Arrest,” J. Am. Chem. Soc. 127:8686-8696 (2005), each of which is hereby incorporated by reference in its entirety). Briefly, cells were fixed with trichloracetic acid, washed and incubated with sulforhodamine B for 30 minutes. After another wash, dye incorporated into the cells was solubilized and measured using a plate reader at 565 nm. Statistical Analysis: Data is presented as mean±SEM (n=6-8). […] Statistical analyses were performed with Student's t-test (*p<0.05; **p<0.005). […] DTIC and Taxol were assayed in the same way for comparison and served as internal quality controls in the different batches of assay. For comparison, the activities of 5R and 5S were measured.

With CCCCCCCCCCCCCCNC(=O)[C@@H]1CSC(c2ccccc2)N1.Cl (mixture of isomers) [Compound 4, (2RS, 4R)-2-Phenylthiazolidine-4-carboxylic acid tetradecylamide Hydrochloride] the “Activation of effector caspase-3” value [1] was “no increase in activity”, the pIC50 ([2]; 48 h, read-out: IC50 against both melanoma cell lines) was about 6.30 and the “Selectivity against both neoplastic cell lines (versus fibroblasts)” value ([2]; melanoma cells versus fibroblasts) was “over 10 fold”.
